Values of other authors as cited in patent US20210181182A1, “METHOD FOR IDENTIFICATION OF PERTURBAGENS OF PARTICULAR BIOLOGICAL PROCESSES AND CELL SYSTEMS WITHIN LIVING CELLS” (priority 2018, published 2021).
Structures can show the parent of a compound that is named as a salt. Where two headings read alike, the source gives them in different places. Marks after values point to notes of the source that are not given here.

Test system: mitochondria membrane potential
Settings: cited from earlier work
[1] = HepG2, 1-hour incubation at concentrations below 60 μM

Compound | MMP assay hitCall [1] | MMP assay hitCall
Cc1ccc(-c2c(Cl)nc(C#N)n2S(=O)(=O)N(C)C)cc1 [Cyazofamid] | 1 | 
O=c1[nH]c2ccc([S+]([O-])CCN3CCC(Cc4ccc(F)cc4)CC3)cc2o1 (stereo not shown) [Besonprodil] | 0 | 
COc1ccc(-c2ccccc2)cc1NNC(=O)OC(C)C [Bifenazate] | 1 | 
Nc1ccc(/N=N/c2ccccc2)c(N)n1 [Phenazopyridine hydrochloride, reference compound] | 1 | 
Cc1ccccc1C(=O)Nc1cccc(OC(C)C)c1 [Mepronil] | 1 | 
CCCCCCCCCCCCCC[N+](C)(C)C [Tetradonium bromide] | 0 | 
CCCCCCc1ccc(O)cc1O [4-Hexylresorcinol] | 1 | 
C=CC(=O)OCCC#N [2-Cyanoethyl prop-2-enoate] | 0 | 
CCC(=O)Nc1ccc(Cl)c(Cl)c1 [Propanil] | 1 | 
N#Cc1nn(-c2c(Cl)cc(C(F)(F)F)cc2Cl)c(N)c1[S+]([O-])C(F)(F)F (stereo not shown) [Fipronil] | 1 | 
CC(C)=CC1C(C(=O)OCc2coc(Cc3ccccc3)c2)C1(C)C (stereo not shown) [Resmethrin] | 1 | 
CCCN(CCOc1c(Cl)cc(Cl)cc1Cl)C(=O)n1ccnc1 [Prochloraz] | 0* | 
COc1cc(C)ccc1O [2-Methoxy-4-methylphenol] | 0 | 
O=C(Nc1ccccc1)Nc1ccnc(Cl)c1 [Forchlorfenuron] | 1 | 
C=CC(=O)OCCO [2-Hydroxyethyl acrylate] | 0* | 
CCC(=O)C=Cc1ccc(OC)cc1 [1-(4-Methoxyphenyl)-1-pentene-3-one] | 0 | 
O=C(NC(=O)c1c(F)cccc1F)Nc1ccc(OC(F)(F)C(F)OC(F)(F)F)c(Cl)c1 (stereo not shown) [Novaluron] | 0 | 
COC(=O)/C=C\C(=O)OC [Dimethyl maleate] | 0 | 
C#CCOS(=O)OC1CCCCC1Oc1ccc(C(C)(C)C)cc1 (stereo not shown) [Propargite] | 1 | 
CC(C)(C)CC(C)(C)c1ccc(O)c(-n2nc3ccccc3n2)c1 [Octrizole] | 1 | 
CNC(=O)Oc1cccc2c1OC(C)(C)O2 [Bendiocarb] | 0 | 
CC(C)(c1ccc(O)cc1)c1ccc(O)cc1 [Bisphenol A] | 1 | 
CCCCCC#CC(=O)OC [Methyl 2-octynoate] | 0 | 

Compound | MMP assay hitCall [1] | MMP assay hitCall
C[C@@]1(c2ccc(Oc3ccccc3)cc2)OC(=O)N(Nc2ccccc2)C1=O (racemic) [Famoxadone] | 1 | 
COP(=S)(OC)Oc1ccc([N+](=O)[O-])c(C)c1 [Fenitrothion] | 0* | 
COP(=O)(OC)C(O)C(Cl)(Cl)Cl (stereo not shown) [Trichlorfon] | 0 | 
CC(C)Oc1cccc(NC(=O)c2ccccc2C(F)(F)F)c1 [Flutolanil] | 1 | 
CCCCCCCCCCCCN1CCCC1=O [1-Dodecyl-2-pyrrolidinone] | 0 | 
C=C(C)[C@H]1Cc2c(ccc3c2O[C@@H]2COc4cc(OC)c(OC)cc4[C@@H]2C3=O)O1 [Rotenone, reference compound] | 1 | 
CC(C)=CCCC(C)=CC=O [3,7-Dimethyl-2,6-octadienal] | 0 | 
c1cc(C(c2ccc(OCC3CO3)cc2)c2ccc(OCC3CO3)cc2)ccc1OCC1CO1 (stereo not shown) [2,2′,2″-[Methanetriyltris(benzene-4,1-diyloxymethanediyl)]trioxirane] | 0 | 
CO/N=C(/C1=NOCCO1)c1ccccc1Oc1ncnc(Oc2ccccc2Cl)c1F [Fluoxastrobin] | 1 | 
CN1CCN(c2ccccc2/C=C2\SCCN(c3ccc(Cl)c(Cl)c3)C2=O)CC1 [Elzasonan] | 0 | 
Cl.ClCc1cccnc1 [3-(Chloromethyl)pyridine hydrochloride] | 0 | 
CCOP(=S)(OCC)SCn1c(=O)oc2cc(Cl)ccc21 [Phosalone] | 1 | 
COP(=O)(OC)OC=C(Cl)Cl [Dichlorvos] | 0* | 
CC#C[C@]1(O)CC[C@H]2[C@@H]3CCC4=CC(=O)CCC4=C3[C@@H](c3ccc(N(C)C)cc3)C[C@@]21C [Mifepristone, reference compound] | 1 | 
CON=C(C(=O)OC)c1ccccc1CON=C(C)c1cccc(C(F)(F)F)c1 [Trifloxystrobin] | 1 | 
CCCSP(=O)(OCC)Oc1ccc(Br)cc1Cl (stereo not shown) [Profenofos] | 1 | 
COc1ccc(C(=CC(=O)N2CCOCC2)c2ccc(Cl)cc2)cc1OC [Dimethomorph] | 0 | 
O=C(CCl)Nc1ccccc1 [2-Chloro-N-phenylacetamide] | 0 | 
CN=C=S [Methyl isothiocyanate] | 0 | 
CCCCCCCCCC[N+](C)(C)CCCCCCCCCC.[Cl-] [Didecyldimethylammonium chloride] | 1 | 
CN1CSC(=S)N(C)C1 [Dazomet] | 0 | 
O=P(OCC(Br)CBr)(OCC(Br)CBr)OCC(Br)CBr (stereo not shown) [Tris(2,3-dibromopropyl) phosphate] |  | 1
C=CCC1=C(C)C(OC(=O)C2C(C=C(C)C)C2(C)C)CC1=O (stereo not shown) [Allethrin] | 1 | 

Compound | MMP assay hitCall [1] | MMP assay hitCall
COC(=O)NC(=S)Nc1ccccc1NC(=S)NC(=O)OC [Thiophanate-methyl] | 0* | 
CCOP(=S)(OCC)SCSCC [Phorate] | 0* | 
CCc1cccc(C)c1N(C(=O)CCl)C(C)COC (stereo not shown) [Metolachlor] | 0 | 
Oc1ccc(C(c2ccc(O)cc2)(C(F)(F)F)C(F)(F)F)cc1 [Bisphenol AF] |  | 1
C=CC(O)CCCCC (stereo not shown) [1-Octen-3-ol] | 0 | 
CC=CC=CCOC(=O)C(C)C [2,4-Hexadienyl isobutyrate] | 0 | 
CN(C)c1ccc(/N=N/c2ccccc2C(=O)O)cc1 [Methyl red] | 0 | 
COC(=O)/C=C(\C)CCC=C(C)C [Methyl geranate] | 0 | 
CC(C)(O)C(=O)Nc1ccc([N+](=O)[O-])c(C(F)(F)F)c1 [Hydroxyflutamide] | 1 | 
COC(=O)c1c(C(F)F)nc(C(F)(F)F)c(C2=NCCS2)c1CC(C)C [Thiazopyr] | 0 | 
Oc1cccc2cccnc12 [8-Hydroxyquinoline] |  | 0
C(=NC1CCCCC1)=NC1CCCCC1 [Dicyclohexylcarbodiimide] | 0* | 
Clc1nc(Cl)nc(Nc2ccccc2Cl)n1 [Anilazine] | 0 | 
CCCCCCCCCCCC[N+](C)(C)Cc1ccccc1.[Cl-] [Benzyldimethyldodecylammonium chloride] | 1 | 
Nc1ccc(-c2ccc(N)c(N)c2)cc1N [3,3′-Diaminobenzidine] |  | 1
C#CCC1=C(C)C(OC(=O)C2C(C=C(C)C)C2(C)C)CC1=O (stereo not shown) [Prallethrin] | 1 | 
CC(C)C1CCC(Cc2ccc(Cl)cc2)C1(O)Cn1cncn1 (stereo not shown) [Ipconazole] | 1 | 
CC(=O)/C=C/c1ccccc1 [Methyl trans-styryl ketone] | 0 | 
Oc1ccc2c(c1)-c1ccccc1C2 [3-Hydroxyfluorene] | 1 | 
CCCCOC(=O)c1ccccc1C(=O)OCCCC [Dibutyl phthalate] | 0* | 
CCOC(=O)N1CCC(=C2c3ccc(Cl)cc3CCc3cccnc32)CC1 [Loratadine, reference compound] | 1 | 
Oc1c(Cl)cc(Cl)c(Cl)c1Cc1c(O)c(Cl)cc(Cl)c1Cl [Hexachlorophene] |  | 1
C=CC(=O)OCCOCCOCC [2-(2-Ethoxyethoxy)ethyl prop-2-enoate] | 0 | 

Compound | MMP assay hitCall [1] | MMP assay hitCall
N#Cc1cc(I)c(O)c(I)c1 [Ioxynil] | 1 | 
COc1ccc(O)c(C(C)(C)C)c1 [2-tert-Butyl-4-methoxyphenol] | 1 | 
O=C(Nc1ccc(Cl)cc1)Nc1ccc(Cl)c(Cl)c1 [Triclocarban] | 1 | 
CCN(CC)c1ccc2c(C)cc(=O)oc2c1 [7-Diethylamino-4-methylcoumarin] |  | 1
CC(C)(C)c1ccc(CCOc2ncnc3ccccc23)cc1 [Fenazaquin] | 0* | 
CC(C)(C)C(=O)C(Oc1ccc(Cl)cc1)n1cncn1 (stereo not shown) [Triadimefon] | 0 | 
COC(=O)N(OC)c1ccccc1COc1ccn(-c2ccc(Cl)cc2)n1 [Pyraclostrobin] | 1 | 
Nc1ccc(N=Nc2ccccc2)cc1 [4-Aminoazobenzene] |  | 0
CCC[CH2][Sn]([Cl])([CH2]CCC)[CH2]CCC [Tributyltin chloride] |  | 1
CO[C@@H]1[C@H](OC(=O)NC(=O)CCl)CC[C@]2(CO2)[C@H]1[C@@]1(C)O[C@@H]1CC=C(C)C [TNP-470] | 0 | 
CC1COC(Cn2cncn2)(c2ccc(Oc3ccc(Cl)cc3)cc2Cl)O1 (stereo not shown) [Difenoconazole] | 1 | 
Cc1cc(C)nc(Nc2ccccc2)n1 [Pyrimethanil] | 0 | 
O=C(CCl)c1ccccc1 [2-Chloroacetophenone] | 0* | 
Oc1c(Cl)c(Cl)c(Cl)c(Cl)c1Cl [Pentachlorophenol] | 1 | 
COC(C=C(C)CCC=C(C)C)OC [1,1-Dimethoxy-3,7-dimethylocta-2,6-diene] | 0 | 
CCOC1Oc2ccc(OS(C)(=O)=O)cc2C1(C)C (stereo not shown) [Ethofumesate] | 0 | 
CC(=O)N1CCN(c2ccc(OCC3COC(Cn4ccnc4)(c4ccc(Cl)cc4Cl)O3)cc2)CC1 (stereo not shown) [Ketoconazole, reference compound] | 1 | 
CCC(C)c1cc([N+](=O)[O-])cc([N+](=O)[O-])c1O (stereo not shown) [Dinoseb] | 1 | 
CC(C)Oc1cc(-n2nc(C(C)(C)C)oc2=O)c(Cl)cc1Cl [Oxadiazon] | 1 | 
Cl.ClCc1ccccn1 [2-(Chloromethyl)pyridine hydrochloride] | 0 | 
CC1(C)CCC(Cc2ccc(Cl)cc2)C1(O)Cn1cncn1 (stereo not shown) [Metconazole] | 1 | 
CC(C)(C)c1ccc(CSc2cnn(C(C)(C)C)c(=O)c2Cl)cc1 [Pyridaben, reference compound] | 1 | 
